Entries after “also recorded” stand apart in the source; their conditions may differ.
Legend:
MIAPaCa-2 cells = assay: Transwell (Boyden chamber) migration assay, MIAPaCa-2; assay type: cell-based, human; details: MIAPaCa-2, Boyden chamber, increasing doses, 4 h
Procedure: MIAPaCa-2 cells were platted on transwells and exposed to increasing doses of Pimozide for 4 h (FIG. 7A). Migrated cells were measured and normalized to their controls. Values are the mean+/−SD of four replicate.
This assay for confirmation of cell migration was performed using 96-well Costar Transwell chambers with 8.0 μm pore polycarbonate membranes (Corning Inc., Corning, N.Y.). Cell culture inserts transwells were placed in wells of 96 well plate. The bottom chambers were filled with 120 μl of cell culture medium containing 10% FBS. Cells suspended in 70 μl serum free medium with DMSO as negative control or drugs were added to the upper part of each chamber followed by incubation at 37° C. with 5% CO2. After 4 h the medium was aspirated from the top of chambers and the bottom side of chambers washed with PBS. Those that have penetrated to the bottom side of the membrane were detached with 0.25% tryspin/EDTA during 3 min (37° C.) followed by inactivation of trypsine with soybean (Sigma Aldrich). […] Six replicates were performed for each treatment condition to predict the responder outcome variable and the luminescence signal which is corresponding to the number of live suspended cells was measured. Graph was plotted according to the readings obtained. […]

[1] = test system: PANC-1, MIAPaCa-2 and AsPC-1 cell lines; assay: PDAC cell line growth curves under combination therapy; assay type: cell-based, human; details: over time
From the text: FIGS. 11A and 11B show PDAC cell line growth curves following combination therapy with DRD2 antagonists, 2-deoxy-D-glucose, and atorvastatin. Percentage cell growth shown on the y-axis following treatment with control (blue line), pimozide (Pim, gray line), atorvastatin and 2-deoxy-D-glucose (ATR+2-DG, red line) and combination of Pim and ATR+2-DG (green line) over time in PANC-1 (top), MIAPaCa-2 (middle) and AsPC-1 (bottom) cell lines (FIG. 11A). Haloperidol (Hal, gray line) is used as the DRD2 antagonist for use alone or in combination with ATR+2-DG as described in A (FIG. 11B). Dosage are indicated for each cell line.
PDAC cell proliferation was measured during pharmacological inhibition of DRD2 alone and in combination with blockade of glycolysis and cholesterol synthesis. To suppress glycolysis, 2-DG, a glucose analog which is a competitor inhibitor of glucose metabolism, was used. To inhibit cholesterol synthesis, atorvastatin (ATR), a competitive inhibitor of 3-hydroxy-3-methylglutaryl-coenzyme A (HMG-CoA) reductase in the cholesterol biosynthesis pathway was used.

Structure (SMILES): O=c1[nH]c2ccccc2n1C1CCN(CCCC(c2ccc(F)cc2)c2ccc(F)cc2)CC1 [pimozide]
- migrated cells (MIAPaCa-2 cells): significantly reduced migrated cells; also recorded: dose dependent inhibitory effect
- cell growth [1]: reduced cell growth

Reference: patent publication US10874685B2, “Pancreatic cancer therapy and diagnosis” (Deutsches Krebsforschungszentrum Stiftung des Öffentlichen …, priority 2014, dated 2020)
